The values below come from patent publication EP4810009A1, “MELANOGENESIS INHIBITOR AND EXTERNAL PREPARATION FOR SKIN CONTAINING SAME” (MITSUBISHI GAS CHEMICAL COMPANY, INC., priority 2023, dated 2025).

For one series, the system named is pig skin. The experiment in a line: Chemical peeling ability. The note with it: aqueous solution of 7% by weight of organic acid on pig skin for 24 hours; decrease of stratum corneum thickness. The method, then: An aqueous solution of 7% by weight of organic acid was allowed to act on to pig skin for 24 hours. If the thickness of the stratum corneum decreased by 10% or more, it was evaluated as A; if it decreased by less than 10%, it was evaluated as B.

In series [1] the test system is Cutibacterium acnes NBRC 107605. Description: Ability to eliminate acne bacteria. Format: cell-based. The note with it: 0.05 mL of aqueous solution of 7% by weight of organic acid added to 5 mL test solution; viable cell count after 60 seconds. The method, then: 0.05 mL of an aqueous solution of 7% by weight of organic acid was added dropwise to 5 mL of a test solution containing the bacterial strain Cutibacterium acnes NBRC 107605 at a concentration of 10^8 CFU/mL. After 60 seconds, if the viable cell count was less than 1%, it was evaluated as A; if the viable cell count was 1% or more, it was evaluated as B. [Table 10]

A short description of series [2]: Solubility in oils (saturated solubility of oleic acid in organic acid solution). The class given is physicochemical. Particulars: oleic acid in aqueous solution of 50% by weight of organic acid; room temperature (23°C), 24 hours. The method, then:
Oleic acid was added into an aqueous solution of 50% by weight of organic acid, and the mixed solution was then stirred at room temperature (23°C) for 24 hours.

Series [3] in a line: Solubility in oils and fats (saturated solubility of palmitic acid in organic acid solution). The class given is physicochemical. Particulars: palmitic acid in aqueous solution of 50% by weight of organic acid; room temperature (23°C), 24 hours. How it is done:
Palmitic acid was added into an aqueous solution of 50% by weight of organic acid, and the mixed solution was then stirred at room temperature (23°C) for 24 hours.

Another series relates to tyrosinase protein. Description: Tyrosinase protein expression inhibition test (Western blot). Format: cell-based. The note with it: normal human melanocytes; 20 mM; 48 hours; Figure 4. The method, then: Normal human melanocytes (manufactured by Kurabo Industries Ltd.) were used as melanin-producing cells. As a medium for the cells, Dermalife was used. The cell concentration was adjusted to 3 x 10^5 cells/1.5 mL, and the cells were cultured in a 6-well plate in the presence of 5% carbon dioxide at 37°C for 24 hours.
(§1) As a test sample, NaOH was added to methyl lactic acid to adjust the pH to 6.5, and was used. […]. As a control, Dermalife, into which methyl lactic acid was not added, was used.
The medium was replaced with the test sample (1.5 mL/well) and cultured for 48 hours. After removing the medium, proteins were extracted using M-PER™ Mammalian Protein Extraction Reagent (manufactured by Themo), and were then developed by SDS-PAGE. After the resultant had been transferred onto a polyvinylidene difluoride (PVDF) membrane, the membrane was blocked with 5% skim milk. After a reaction had been performed with an anti-tyrosinase antibody (manufactured by Santa Cruz Biotechnology) for 1 hour, the membrane was further reacted with an HRP-conjugated secondary antibody (manufactured by abcam) for an additional 1 hour. Protein bands were detected using Ez West Blue W (manufactured by ATTO). The signal intensity of the resulting bands was detected using the image processing software ImageJ, and the relative protein expression levels were calculated. […]

Series [4] deals with B16 melanoma. Description: Cytotoxicity test (Cell counting Kit 8). Format: cell-based, mouse. Particulars: 100 µM methyl lactic acid, one day of culture, Figure 2. How it is done:
Cell culture was performed by the same method as that in Example 1 mentioned above.
The test sample was prepared by the same method as that in Example 1 mentioned above.
Cells were detached from the culture obtained under the cell culture conditions described in Example 1, and 0.1 mL of cells and medium were each seeded into a 96-well vessel to a cell concentration of 5 x 10^4 cells/mL. After one day of culture, the medium was removed and replaced with the test sample. After one further day of culture, the vessel was washed with an assay medium, and 0.1 mL each of a 1 : 9 mixed solution of Cell counting Kit 8 and medium was added. After the mixture had been left at rest at 37°C for 30 minutes in the presence of 5% carbon dioxide, the absorbance at 450 nm was measured using a plate reader, and the cell count was calculated.
The cell count (%) is a relative value (%) in a case where the cell count in the negative control (medium alone) is taken as 100%, and for each case, it is an average value of the values measured for 16 samples.

A further series concerns tyrosinase mRNA. The experiment in a line: Evaluation of suppression of melanin synthesis-related factor mRNA expression (Real-time PCR). The class given is cell-based. Particulars: normal human melanocytes; 10 and 20 mM; 24 hours; Figure 5. The method, then:
Normal human melanocytes (manufactured by Kurabo Industries, Ltd.) were used as melanin-producing cells. As a medium for the cells, […] was used. The cell concentration was adjusted to 3 x 10^4 cells/mL, and the cells were cultured in a 96-well plate in the presence of 5% carbon dioxide at 37°C for 24 hours. As a test sample, NaOH was added to methyl lactic acid to adjust the pH to 6.5, and was used. […] As a control, […], into which methyl lactic acid was not added, was used. The medium was replaced with the test sample (100 μL/well) and cultured for 24 hours. After removing the medium, RNA was extracted using Cells-to-Ct kit (manufactured by Themo), and was then subjected to reverse transcription to synthesize cDNA. Using the resulting cDNA, Real-time PCR was carried out, and the relative expression level of mRNA was calculated. In Figure 5, "Control" is a negative control, which uses a medium without the test sample.

Series [5] deals with B16 melanoma. Description: Evaluation of melanin production inhibitory activity. The class given is cell-based, mouse. Particulars: 100 µM methyl lactic acid, pH 6.5 with NaOH; one day of culture; compared with kojic acid 1 mM positive control; Figure 1. The method, then:
As melanin-producing cells, mouse-derived skin melanoma cells, B16 melanoma (JCRB0202, purchased from JCRB Cell Bank) were used. As a medium for cell culture, 500 mL of E-MEM medium was mixed with 5 mL of x 100 penicillin-streptomycin solution and 100 mL of inactivated fetal bovine serum (manufactured by West Bio), and the resulting medium was used. For the subculture of cells, the cells were washed with a phosphate buffer (manufactured by GIBCO), and were detached from the vessel with 0.25% trypsin and EDTA (ethylenediaminetetraacetic acid), followed by addition of a medium, and the obtained mixture was centrifugated to separate the cels. To ensure stable cell culture, the cell concentration was adjusted to 5 to 16 x 10^4 cells/mL, and the cells were then cultured in a 10-cm petri dish or a plastic culture flask (175 cm^2) in the presence of 5% carbon dioxide at 37°C. […] The absorbance at 450 nm was measured using a plate reader, and the melanin concentration was calculated. […] The melanin production percentage (%) shown in Figure 1 is a relative value (%) in a case where the melanin concentration in the negative control is taken as 100%, and for each case, it is an average value of the values measured for 12 samples.

For a further series, the system named is tyrosinase. Description: Tyrosinase biosynthesis inhibitory action test (DOPA-melanin per unit protein in cell lysate). Format: cell-based. Particulars: normal human melanocytes; 2.5, 5, 10, 20, and 40 mM; one day of culture; Figure 3. The method, then: Normal human melanocytes (manufactured by Kurabo Industries, Ltd.) were used as melanin-producing cells. As a medium for the cells, Dermalife (manufactured by Kurabo Industries, Ltd.) was used. The cell concentration was adjusted to 3 x 10^4 cells/mL, and the cells were cultured in a 96-well plate in the presence of 5% carbon dioxide at 37°C for 24 hours.
as §1
The medium was removed from the culture obtained under the aforementioned cell culture conditions and replaced with the test sample. After one day of culture, the medium was removed, and a phosphate buffer containing 0.5% Triton X-100 was added in an amount of 50 µL/well. The cells were lysed by agitation. 50 µL of the cell lysate was mixed with 50 µL of phosphate buffer containing 2 mM DOPA, and the obtained mixture was then incubated at 37°C for 2 hours. The absorbance (measurement wavelength: 405 nm, reference wavelength: 650 nm) was measured, and the amount of DOPA-melanin was calculated from a calibration curve. The amount of the protein was quantified using a BCA protein assay kit (Thermo), and the amount of DOPA-melanin per unit protein was then calculated to confirm tyrosinase biosynthesis inhibitory action. […]

On to `O=C(O)CO` [Glvcolic acid], for which, in the series with pig skin, the Chemical peeling ability result is recorded as “A (If the thickness of the stratum corneum decreased by 10% or more, it was evaluated as A)”. Moreover, in series [1], the “Ability to eliminate acne bacteria” value is “A (if the viable cell count was less than 1%, it was evaluated as A)”.
`O=c1cc(CO)occ1O` [Kojic acid, reference compound]: the Solubility in oils entry in [2] is recorded as “B (if it was less than 200 ppm, it was evaluated as B)”. Moreover, the “Solubility in oils and fats” value in series [3] was “B (if it was less than 20 ppm, it was evaluated as B)”. Moreover, in the series on pig skin, the Chemical peeling ability entry is “B (if it decreased by less than 10%, it was evaluated as B)”. In [1], the “Ability to eliminate acne bacteria” value is “B (if the viable cell count was 1% or more, it was evaluated as B)”.
Take `CC(O)C(=O)O` (centres unmarked) [Lactic acid]: the Chemical peeling ability entry in the series with pig skin is on record as “A (If the thickness of the stratum corneum decreased by 10% or more, it was evaluated as A)”. In addition, the “Ability to eliminate acne bacteria” value in series [1] is recorded as “A (if the viable cell count was less than 1%, it was evaluated as A)”.
Turning to `CC(C)(O)C(=O)O` [Methyl lactic acid, 2-hydroxyisobutyric acid], in [2], the Solubility in oils entry was “A (if the saturated solubility of oleic acid was 200 ppm or more, it was evaluated as A)”. The “tyrosinase protein expression inhibitory action (relative expression level of tyrosinase protein)” value in the series with tyrosinase protein is “a tyrosinase protein expression inhibitory action was exhibited”. Moreover, in the series on B16 melanoma [4], the “cytotoxicity (cell count)” value was “cytotoxicity was not confirmed”. In addition, the “tyrosinase mRNA expression-suppressing action (relative expression level of tyrosinase mRNA)” value in the series on tyrosinase mRNA was “exhibited a tyrosinase mRNA expression-suppressing action”. Also, the “melanogenesis-inhibiting effect (melanin production percentage)” value in the series with B16 melanoma [5] is listed as “the same melanogenesis-inhibiting effect as the addition of kojic acid”. Moreover, the “tyrosinase biosynthesis inhibitory action (DOPA-melanin per unit protein)” value in the series with tyrosinase is “a tyrosinase biosynthesis inhibitory action was exhibited in a dose-dependent manner”. Also, the “Solubility in oils and fats” value in [3] is recorded as “A (if the saturated solubility of palmitic acid was 20 ppm or more, it was evaluated as A)”. Besides, the Chemical peeling ability result in the series on pig skin is reported as “A (If the thickness of the stratum corneum decreased by 10% or more, it was evaluated as A)”. For the same compound, the “Ability to eliminate acne bacteria” value in series [1] is given as “A (if the viable cell count was less than 1%, it was evaluated as A)”.
